Experiments:
[1] = system: T-Cells (CD4+ and CD8+), Tregs, MDSCs and checkpoint markers in tumors and spleens; experiment: Flow cytometry immune profile of tumors and spleens, Day 15; format: in vivo, Balb/c mice
Procedure: The anti-cancer activity of an anti-mPD-L1 antibody (10F.9G2) and GMI-1359 was compared to a rat isotype control antibody against indeterminate subcutaneous CT26.WT carcinoma xenografts in female Balb/c mice. An immune profile of each mouse was determined by sampling tumors and spleens, staining for several markers of an active immune response, and detecting the levels of these markers via flow cytometry. Flow cytometry markers included: T-Cells (CD4^+ and CD8^+), Regulatory T-Cells (Tregs). (CD4^+/CD25^+/FoxP3^+), MDSCs (CD11b^+/Gr1^+) and co-expression of CCR7^+ and CD62^+ added to the existing CD4/CD8 panel.
At 24 hours after the final dose of GMI-1359 (Day 15), all mice from Groups 7-12 were euthanized for tumor and spleen collection. All mice were euthanized via over exposure to carbon dioxide. The tumors and spleens were excised and placed in a labeled 5 mL sampling tube filled with cold PBS and placed on ice. The tumors and spleens were provided to the Molecular Imaging's in vitro group for flow cytometric analysis.
For tumor dissociation, the tumor was weighed and <1 g tissue was processed according to Miltenyi Tumor Dissociation Protocol 2.2.1, Dissociation of soft tumors, before proceeding to the red blood cell lysis.
For spleen dissociation, the plunger on a 3 mL syringe was used to crush the spleen in 10 mL DPBS until organ was well broken up and the DPBS became cloudy with cells. The cell suspension was then filtered with a 70 μm strainer on a 50 mL tube and washed with 20 mL DPBS. The suspension was then centrifuged for 7 minutes at 300 rcf and the supernatant was discarded before proceeding the red blood cell lysis.
For the red blood cell lysis, each of the tumor and spleen samples were re-suspended in 3 mL ACK Lysis Buffer and then incubated for 5 minutes at room temperature. The suspension was diluted by adding 10 mL DPBS, and then the cells were collected via centrifugation for 5 minutes at 300 rcf. The cells were again re-suspended in 30 mL DPBS and counted. The suspension was centrifuged again, and the supernatant was discarded before proceeding to the Fc block.
For the Fc block, each of the tumor and spleen samples were re-suspended at 1E+06 cells per 100 μL in Flow Cytometry Staining buffer with 1 μL Fc block per 1E+06 cells. The suspensions were incubated for 5 minutes at room temperature, then centrifuged for 5 minutes at 300 rcf, and the supernatant was removed before proceeding to surface staining.
For the surface staining, the following antibody dilutions were prepared, 50 μL per reaction in Flow Cytometry Staining Buffer (except FoxP3):
For surface staining, the tumor and spleen cells were re-suspended at 1E+06 cells per 50 μL. Each of the 50 μL cell suspensions containing 1E+06 cells was added to 50 μL antibodies diluted in staining buffer in round-bottom 96-well plate. The plate was incubated for 30 minutes in the dark at room temperature on the orbital shaker, setting 2.5. The samples were diluted by adding 200 μL Flow Cytometry Staining Buffer and then centrifuged for 5 minutes at 300 rcf. The supernatant was aspirated and the cells were washed wash by re-suspending in 250 μL Flow Cytometry Staining Buffer and spinning. If staining for intracellular markers, after washing, the sample was then prepared according to the intracellular staining procedure described below. The samples were then re-suspended in 250 μL Flow Cytometry Staining Buffer and were ready for Flow Cytometry Analysis.
When staining for intracellular markers, following the wash step, the cells were re-suspended in 200 μL FoxP3 Fixation/Permeabilization working solution and incubated for 30 minutes in the dark at room temperature. The samples were then centrifuged at 400 rcf for 5 minutes at room temperature, then the supernatant was discarded. 200 μL 1× permeabilization buffer was added to each well. The samples were centrifuged at 400 rcf for 5 minutes at room temperature, then the supernatant was discarded. […]

CXCR4 = target: T1, CXCR4 (Homo sapiens, UniProt P61073); experiment: Flow based competitive binding assay, anti-CXCR4 antibody binding to Raji cells; conditions: phycoerythrin-conjugated anti-CXCR4 antibody
T1 construct: host or cells: Raji cells
T1 sequence (P61073 whole entry): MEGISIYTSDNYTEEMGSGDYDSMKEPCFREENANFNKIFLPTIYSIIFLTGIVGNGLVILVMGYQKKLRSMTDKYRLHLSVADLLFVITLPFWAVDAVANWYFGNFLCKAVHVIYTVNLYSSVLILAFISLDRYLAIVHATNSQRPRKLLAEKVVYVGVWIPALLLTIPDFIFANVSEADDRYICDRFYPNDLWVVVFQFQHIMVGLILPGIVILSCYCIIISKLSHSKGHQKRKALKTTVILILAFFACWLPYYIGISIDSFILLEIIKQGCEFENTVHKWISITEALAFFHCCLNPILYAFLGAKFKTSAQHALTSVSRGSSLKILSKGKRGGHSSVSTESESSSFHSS
Procedure: FIG. 21 relates to an experiment carried out to determine the competitive binding activity (IC50) of GMI-1359 against E-selectin and CXCR4. GMI-1359 was assessed for inhibition of sialyl Le^X binding to immobilized E-selectin and α-CXCR4 antibody binding to Raji cells.
The inhibition assay to screen GMI-1359 as an antagonist of CXCR4 was a flow based competitive binding assay, which allowed the determination of […] values. Raji cells (ATCC number TIB-152) were washed twice with Hanks Balanced Saline Solution (HBSS) containing 0.05% bovine serum albumin (BSA). After the second wash, the cells were resuspended to about 2.5×10^6 cells per mL and 80 μl of cells (approximately 2×10^5 cells) were added to BD 2063 tubes. Next, 10 μl of either GMI-1359 or HBSS/BSA (as a negative control) were added to the cells and the tube was placed at room temperature for 10 minutes. Then, 10 μl of a phycoerythrin-conjugated anti-CXCR4 antibody (R&D Systems, FAB170P) or as a negative control, 10 μl of an isotype control antibody (R&D Systems, IC003P) was added to the cells with HBSS/BSA. The antibodies were allowed to bind to the cells for 1 hour at 4° C. […] Binding of the anti-CXCR4-PE antibody to the cells was assessed by flow cytometry, and the median fluorescent intensity was determined. […]

SMILES: CCC1CC(C(=O)NCCNCc2ccc(CN3CCCNCCNCCCNCC3)c(Br)c2)CC(OC2OC(CO)C(O)C(O[C@@H](CC3CCCCC3)C(=O)O)C2NC(C)=O)C1OC1OC(C)C(O)C(O)C1O (stereo partly shown) [GMI-1359]
- average percentage of CCR7^+/CD62L^+ cells within the CD8^+ T-cell population in spleens ([1]; spleens, Day 15, Groups 8-12): 1.00%
- average percentage of CD4^+ T-cells expressing CCR7 but not CD62L in spleens ([1]; spleens, Day 15, Groups 8-12): 33.36%
- average percentage of CD4^+ T-cells expressing CD62L but not CCR7 in spleens ([1]; spleens, Day 15, Groups 8-12): 5.42%
- average percentage of CD4^+ T-cells expressing both CCR7 and CD62L in spleens ([1]; spleens, Day 15, Groups 8-12): 2.05%
- average percentage of CD4^+ cells in spleens ([1]; spleens, Day 15, Groups 8-12): 13.43%
- average percentage of CD8^+ T-cells expressing CCR7 but not CD62L in spleens ([1]; spleens, Day 15, Groups 8-12): 27.95%
- average percentage of CD8^+ T-cells expressing CD62L but not CCR7 in spleens ([1]; spleens, Day 15, Groups 8-12): 2.94%
- average percentage of CD8^+ cells in spleens ([1]; spleens, Day 15, Groups 8-12): 8.77%
- average percentage of MDSCs in spleens ([1]; spleens, Day 15, Groups 8-12): 3.70%
- average percentage of Tregs in spleens ([1]; spleens, Day 15, Groups 8-12): 10.00%
- average percentage of cells expressing CTLA-4 in spleens ([1]; spleens, Day 15, Groups 8-12): 12.31%
- average percentage of cells expressing PD-1 in spleens ([1]; spleens, Day 15, Groups 8-12): 5.53%
- average percentage of cells expressing PD-L1 in spleens ([1]; spleens, Day 15, Groups 8-12): 81.50%
- percentage of CD4^+/CCR7^+/CD62L^+ cells in spleens, change ([1]; spleens, Day 15, compared to vehicle, GMI-1359 or isotype control antibody, respectively): did not
- average percentage of (CD4^+) cells expressing CD62L but not CCR7 in tumors ([1]; tumors, Day 15, Groups 8-12): 31.43%
- average percentage of CCR7^+/CD62L^+ cells within the CD8^+ T-cell population in tumors ([1]; tumors, Day 15, Groups 8-12): 25.84%
- average percentage of CD4^+ T-cells expressing both CCR7 and CD62L in tumors ([1]; tumors, Day 15, Groups 8-12): 25.32%
- average percentage of CD8^+ cells in tumors ([1]; tumors, Day 15, Groups 8-12): 15.61%
- average percentage of cells expressing CTLA-4 in tumors ([1]; tumors, Day 15, Groups 8-12): 42.80%
- average percentage of cells expressing PD-1 in tumors ([1]; tumors, Day 15, Groups 8-12): 23.39%
- average percentage of cells expressing PD-L1 in tumors ([1]; tumors, Day 15, Groups 8-12): 34.44%
- average percentage of myeloid-derived suppressor cells (MDSCs) in tumors ([1]; tumors, Day 15, Groups 8-12): 2.66%
- average percentage of regulatory T-cells (Tregs) in tumors ([1]; tumors, Day 15, Groups 8-12): 2.93%
- detection of CD4^+/CCR7^+/CD62L^− and CD8^+/CCR7^+/CD62L^− populations in tumor samples ([1]; tumors, Day 15, Groups 8-12): Neither CD4^+/CCR7^+/CD62L^− nor CD8^+/CCR7^+/CD62L^− populations were detected
- percentage of CD8^+ T-cells expressing CD62L but not CCR7 in tumors ([1]; tumors, Day 15, Groups 8-12): 25.65%
- average percentage of CD4^+ cells in tumors ([1]; tumors, Day 15, Groups 8-12 (GMI-1359 40 mg/kg IP Days 3-14, antibody 10 mg/kg IP Days 3,6,10,13)): 7.02%
- percentage of Treg among tumor infiltrating cells (summary comparison) ([1]; tumors, Day 15, groups 8, 10, 12, saline group 7 3.3%): 2.9%
- inhibition of anti-CXCR4 antibody binding (CXCR4): inhibits ligand binding
